Experimental findings from US8541418B2, “Inhibitors of polo-like kinase” (Elan Pharmaceutical, Inc., priority 2009, dated 2013) are described below.

Assay type in all cases: biochemical
The target in assay [1] is PLK1 (Homo sapiens, UniProt P53350). Put plainly: PLK TR-FRET peptide assay, PLK1.
Assay [2] deals with PLK2 (Homo sapiens, UniProt Q9NYY3). Put plainly: PLK TR-FRET peptide assay, PLK2. The following applies: for IC50: PLK TR-FRET peptide assay, read-out: Plk2 IC50; for relative PLK2 activity of the enantiomers: compared with the opposite enantiomer.
For assay [3], the target named is PLK3 (Homo sapiens, UniProt Q9H4B4). Put plainly: PLK TR-FRET peptide assay, PLK3.
The mark [4] stands for this setting: GST-PLK3, 15 min reaction, read-out: Plk3 IC50.

Each structure is given as a SMILES string. Read-outs that look alike come from different tables or passages of the source.

Sequence of PLK2 (Q9NYY3 whole entry): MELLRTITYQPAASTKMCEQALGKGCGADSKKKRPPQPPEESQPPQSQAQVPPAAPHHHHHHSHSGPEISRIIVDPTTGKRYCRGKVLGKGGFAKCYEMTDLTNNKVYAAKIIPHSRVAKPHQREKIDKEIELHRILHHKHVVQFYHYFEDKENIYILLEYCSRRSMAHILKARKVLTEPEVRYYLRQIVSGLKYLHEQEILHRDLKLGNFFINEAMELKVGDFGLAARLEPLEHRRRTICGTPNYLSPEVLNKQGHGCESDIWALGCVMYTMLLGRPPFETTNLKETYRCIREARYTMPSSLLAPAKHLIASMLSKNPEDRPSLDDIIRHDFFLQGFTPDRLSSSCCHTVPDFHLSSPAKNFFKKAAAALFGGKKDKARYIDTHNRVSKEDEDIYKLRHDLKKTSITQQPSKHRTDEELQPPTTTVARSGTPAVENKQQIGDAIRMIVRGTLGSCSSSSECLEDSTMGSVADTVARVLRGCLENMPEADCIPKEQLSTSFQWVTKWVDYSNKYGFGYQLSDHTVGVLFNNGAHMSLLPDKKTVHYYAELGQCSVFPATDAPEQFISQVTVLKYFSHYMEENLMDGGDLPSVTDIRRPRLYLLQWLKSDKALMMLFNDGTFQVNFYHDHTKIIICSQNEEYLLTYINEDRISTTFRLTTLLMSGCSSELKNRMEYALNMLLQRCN
Sequence of PLK3 (Q9H4B4 whole entry): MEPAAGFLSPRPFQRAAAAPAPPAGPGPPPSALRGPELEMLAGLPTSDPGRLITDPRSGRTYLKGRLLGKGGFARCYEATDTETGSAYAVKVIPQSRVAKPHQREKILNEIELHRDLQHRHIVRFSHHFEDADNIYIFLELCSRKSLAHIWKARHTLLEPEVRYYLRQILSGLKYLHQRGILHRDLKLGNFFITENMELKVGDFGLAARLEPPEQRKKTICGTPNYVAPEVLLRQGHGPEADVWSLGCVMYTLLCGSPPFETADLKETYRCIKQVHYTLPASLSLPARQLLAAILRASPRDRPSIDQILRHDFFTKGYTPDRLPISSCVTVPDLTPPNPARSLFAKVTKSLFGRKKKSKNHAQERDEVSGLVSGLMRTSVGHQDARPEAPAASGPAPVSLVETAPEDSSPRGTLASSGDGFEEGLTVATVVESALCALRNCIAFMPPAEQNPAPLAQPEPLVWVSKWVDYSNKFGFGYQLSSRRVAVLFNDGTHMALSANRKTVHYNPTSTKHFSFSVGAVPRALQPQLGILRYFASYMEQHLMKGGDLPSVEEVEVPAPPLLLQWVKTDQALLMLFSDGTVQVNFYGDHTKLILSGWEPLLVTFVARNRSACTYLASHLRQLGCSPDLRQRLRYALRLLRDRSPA
Sequence of PLK1 (P53350 whole entry): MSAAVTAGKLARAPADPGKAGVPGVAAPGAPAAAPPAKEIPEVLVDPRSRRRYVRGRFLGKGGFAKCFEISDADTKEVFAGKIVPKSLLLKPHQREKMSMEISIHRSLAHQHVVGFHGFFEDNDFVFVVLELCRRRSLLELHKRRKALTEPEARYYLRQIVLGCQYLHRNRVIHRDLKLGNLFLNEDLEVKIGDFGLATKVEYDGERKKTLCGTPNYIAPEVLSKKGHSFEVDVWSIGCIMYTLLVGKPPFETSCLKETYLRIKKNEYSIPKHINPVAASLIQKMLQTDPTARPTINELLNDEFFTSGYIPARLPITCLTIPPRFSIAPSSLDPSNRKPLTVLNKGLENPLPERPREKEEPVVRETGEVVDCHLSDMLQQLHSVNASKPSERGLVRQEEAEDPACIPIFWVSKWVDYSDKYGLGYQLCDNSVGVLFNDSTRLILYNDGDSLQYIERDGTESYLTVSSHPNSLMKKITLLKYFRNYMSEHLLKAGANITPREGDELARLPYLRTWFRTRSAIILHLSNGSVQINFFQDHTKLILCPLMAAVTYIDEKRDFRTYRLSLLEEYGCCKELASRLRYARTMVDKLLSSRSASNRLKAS

In the case of `CC[C@@]12CCCN1c1nc(-n3ccnc3-c3cccc(-n4cccn4)c3)ncc1N(C)C2=O` [Example 276, (S)-2-(2-(3-(1H-pyrazol-1-yl)phenyl)-1H-imidazol-1-yl)-6a-ethyl-5-methyl-6a,7,8,9-tetrahydropyrrolo[2,1-h]pteridin-6(5H)-one], the IC50 in assay [1] (GST-PLK1, 60 min reaction) is 10 to 50 µM; in assay [2] (GST-PLK2, 60 min reaction), below 1 µM; in assay [3] (setting [4]) it was above 50 µM.
In the case of `CC[C@@H]1C(=O)N(C)c2cnc(-c3ccnc(NC)c3)nc2N1C1CCCC1` [Example 20, (R)-8-cyclopentyl-7-ethyl-5-methyl-2-(2-(methylamino)pyridin-4-yl)-7,8-dihydropteridin-6(5H)-one], the IC50 was below 1 µM in assay [1] (GST-PLK1, 60 min reaction); below 1 µM in assay [2] (GST-PLK2, 60 min reaction); 10 to 50 µM in assay [3] (setting [4]).
Turning to `CC[C@@H]1C(=O)N(C)c2cnc(-n3ccnc3N3CCN(C)CC3)nc2N1C1CCCC1` [Example 88, (R)-8-cyclopentyl-7-ethyl-5-methyl-2-(2-(4-methylpiperazin-1-yl)-1H-imidazol-1-yl)-7,8-dihydropteridin-6(5H)-one], the IC50 was 10 to 50 µM in assay [1] (GST-PLK1, 60 min reaction); 10 to 50 µM in assay [2] (GST-PLK2, 60 min reaction); above 50 µM in assay [3] (setting [4]).
With `CN1C(=O)[C@H]2CCCN2c2nc(-c3ccncc3)ncc21` [Example 34, (R)-5-methyl-2-(pyridin-4-yl)-6a,7,8,9-tetrahydropyrrolo[2,1-h]pteridin-6(5H)-one], the IC50 in assay [1] (GST-PLK1, 60 min reaction) is above 50 µM; in assay [2] (GST-PLK2, 60 min reaction), above 50 µM; in assay [3] (setting [4]), above 50 µM.
Regarding `CC[C@@H]1C(=O)N(C)c2cnc(-c3cn[nH]c3-c3nccs3)nc2N1C1CC(F)(F)C1` [Example 353, (R)-8-(3,3-difluorocyclobutyl)-7-ethyl-5-methyl-2-(5-(thiazol-2-yl)-1H-pyrazol-4-yl)-7,8-dihydropteridin-6(5H)-one], the IC50 is 1 to 10 µM in assay [1] (GST-PLK1, 60 min reaction); below 1 µM in assay [2] (GST-PLK2, 60 min reaction); 1 to 10 µM in assay [3] (setting [4]).
As for `CC[C@@H]1C(=O)N(C)c2cnc(-c3cn[nH]c3-c3nccs3)nc2N1c1ccc(Cl)cc1` [Example 382, (R)-8-(4-chlorophenyl)-7-ethyl-5-methyl-2-(5-(thiazol-2-yl)-1H-pyrazol-4-yl)-7,8-dihydropteridin-6(5H)-one], the IC50 is below 1 µM in assay [1] (GST-PLK1); below 1 µM in assay [2] (GST-PLK2); below 1 µM in assay [3] (GST-PLK3, read-out: Plk3 IC50). Besides, the “relative PLK2 activity of the enantiomers” value (shortened to “relative PLK2 activity”) in assay [2] was “more active compound”.
For `CC[C@@]12CCCCN1c1nc(-n3ccnc3-c3cccc(F)c3F)ncc1N(C)C2=O` [Example 259, (S)-2-(2-(2,3-difluorophenyl)-1H-imidazol-1-yl)-6a-ethyl-5-methyl-7,8,9,10-tetrahydro-5H-pyrido[2,1-h]pteridin-6(6aH)-one], the IC50 in assay [1] (GST-PLK1, 60 min reaction) was 1 to 10 µM; in assay [2] (GST-PLK2, 60 min reaction) it was below 1 µM; in assay [3] (setting [4]) it was 1 to 10 µM. In addition, the “relative PLK2 activity” value in assay [2] is “more active compound”.
As for `CC[C@@H]1C(=O)N(C)c2cnc(-c3cn[nH]c3-c3ccccn3)nc2N1C(C)C` [Example 313, (R)-7-ethyl-8-isopropyl-5-methyl-2-(5-(pyridin-2-yl)-1H-pyrazol-4-yl)-7,8-dihydropteridin-6(5H)-one], the IC50 in assay [1] (GST-PLK1, 60 min reaction) is 1 to 10 µM; in assay [2] (GST-PLK2, 60 min reaction), below 1 µM; in assay [3] (setting [4]) it was 1 to 10 µM.
Consider `CC[C@@H]1C(=O)N(C)c2cnc(-n3ncnc3-c3ccccc3)nc2N1C1CCC1` [Example 208, (R)-8-cyclobutyl-7-ethyl-5-methyl-2-(5-phenyl-1H-1,2,4-triazol-1-yl)-7,8-dihydropteridin-6(5H)-one], for which the IC50 in assay [1] (GST-PLK1, 60 min reaction) is below 1 µM; in assay [2] (GST-PLK2, 60 min reaction), below 1 µM; in assay [3] (setting [4]) it was below 1 µM.
As to `CC[C@@H]1C(=O)N(C)c2cnc(-n3ccnc3-c3ccncc3)nc2N1C(C)C` [Example 150, (R)-7-ethyl-8-isopropyl-5-methyl-2-(2-(pyridin-4-yl)-1H-imidazol-1-yl)-7,8-dihydropteridin-6(5H)-one], the IC50 in assay [1] (GST-PLK1, 60 min reaction) is 10 to 50 µM; in assay [2] (GST-PLK2, 60 min reaction), below 1 µM; in assay [3] (setting [4]), 1 to 10 µM.
As to `CC[C@@H]1C(=O)N(C)c2cnc(-n3ncnc3-c3cccc4ncccc34)nc2N1C1CCC1` [Example 215, (R)-8-cyclobutyl-7-ethyl-5-methyl-2-(5-(quinolin-5-yl)-1H-1,2,4-triazol-1-yl)-7,8-dihydropteridin-6(5H)-one], the IC50 is 1 to 10 µM in assay [1] (GST-PLK1, 60 min reaction); 1 to 10 µM in assay [2] (GST-PLK2, 60 min reaction); 1 to 10 µM in assay [3] (setting [4]).
Turning to `CC[C@@H]1C(=O)N(C)c2cnc(-n3ccnc3-c3ccc(F)cc3Cl)nc2N1CCC(F)(F)F` [Example 282, (R)-2-(2-(2-chloro-4-fluorophenyl)-1H-imidazol-1-yl)-7-ethyl-5-methyl-8-(3,3,3-trifluoropropyl)-7,8-dihydropteridin-6(5H)-one], the IC50 in assay [1] (GST-PLK1, 60 min reaction) is 10 to 50 µM; in assay [2] (GST-PLK2, 60 min reaction), below 1 µM; in assay [3] (setting [4]), 10 to 50 µM.
With `CC[C@@H]1C(=O)N(C)c2cnc(-c3ccncc3NS(C)(=O)=O)nc2N1C1CCCC1` [Example 116, (R)—N-(4-(8-cyclopentyl-7-ethyl-5-methyl-6-oxo-5,6,7,8-tetrahydropteridin-2-yl)pyridin-3-yl)methanesulfonamide], the concentration for half-maximal inhibition (IC50) in assay [1] (GST-PLK1, 60 min reaction) was 1 to 10 µM; in assay [2] (GST-PLK2, 60 min reaction) it was below 1 µM; in assay [3] (setting [4]), above 50 µM.
For `CC[C@@H]1C(=O)N(C)c2cnc(-n3cnc(-c4ccccc4)c3)nc2N1C1CCCC1` [Example 36, (R)-8-cyclopentyl-7-ethyl-5-methyl-2-(4-phenyl-1H-imidazol-1-yl)-7,8-dihydropteridin-6(5H)-one], in that order: below 1 µM, below 1 µM and 10 to 50 µM.
Turning to `CN1C(=O)[C@@H](CC(F)(F)F)N(CCC(F)(F)F)c2nc(-n3ccnc3-c3ccc(F)cc3F)ncc21` [Example 293, (R)-2-(2-(2,4-difluorophenyl)-1H-imidazol-1-yl)-5-methyl-7-(2,2,2-trifluoroethyl)-8-(3,3,3-trifluoropropyl)-7,8-dihydropteridin-6(5H)-one], the IC50 was 1 to 10 µM in assay [1] (GST-PLK1, 60 min reaction); below 1 µM in assay [2] (GST-PLK2, 60 min reaction); 10 to 50 µM in assay [3] (setting [4]). Besides, in assay [2], the “relative PLK2 activity” value is recorded as “more active compound”.
On to `CC[C@@H]1C(=O)N(C)c2cnc(-n3ccnc3N3CCCC3)nc2N1C1CCCC1` [Example 86, (R)-8-cyclopentyl-7-ethyl-5-methyl-2-(2-(pyrrolidin-1-yl)-1H-imidazol-1-yl)-7,8-dihydropteridin-6(5H)-one], for which the IC50 in assay [1] (GST-PLK1, 60 min reaction) is 10 to 50 µM; in assay [2] (GST-PLK2, 60 min reaction) it was 1 to 10 µM; in assay [3] (setting [4]), above 50 µM.
For `CC[C@@H]1C(=O)N(C)c2cnc(-n3ccnc3-c3ccc(F)c(F)c3)nc2N1C1CCOC1` (stereo partly drawn) [Example 191, (7R)-2-(2-(3,4-difluorophenyl)-1H-imidazol-1-yl)-7-ethyl-5-methyl-8-(tetrahydrofuran-3-yl)-7,8-dihydropteridin-6(5H)-one], the IC50 in assay [1] (GST-PLK1, 60 min reaction) was 1 to 10 µM; in assay [2] (GST-PLK2, 60 min reaction), below 1 µM; in assay [3] (setting [4]) it was 10 to 50 µM.
Consider `CC[C@@H]1C(=O)N(C)c2cnc(-c3ccnc(N(C)C)c3)nc2N1C1CCCC1` [Example 21, (R)-8-cyclopentyl-2-(2-(dimethylamino)pyridin-4-yl)-7-ethyl-5-methyl-7,8-dihydropteridin-6(5H)-one], for which the IC50 is below 1 µM in assay [1] (GST-PLK1, 60 min reaction); below 1 µM in assay [2] (GST-PLK2, 60 min reaction); 10 to 50 µM in assay [3] (setting [4]).
Consider `CC[C@@H]1C(=O)N(C)c2cnc(-c3cnc4[nH]ccc4c3)nc2N1C1CCCC1` [Example 32, (R)-8-cyclopentyl-7-ethyl-5-methyl-2-(1H-pyrrolo[2,3-b]pyridin-5-yl)-7,8-dihydropteridin-6(5H)-one], for which the IC50 in assay [1] (GST-PLK1, 60 min reaction) was below 1 µM; in assay [2] (GST-PLK2, 60 min reaction), below 1 µM; in assay [3] (setting [4]), 1 to 10 µM.
On to `CC[C@@H]1C(=O)N(C)c2cnc(-c3cn[nH]c3-c3cscn3)nc2N1C(C)C` [Example 320, (R)-7-ethyl-8-isopropyl-5-methyl-2-(5-(thiazol-4-yl)-1H-pyrazol-4-yl)-7,8-dihydropteridin-6(5H)-one], for which the IC50 is 1 to 10 µM in assay [1] (GST-PLK1, 60 min reaction); below 1 µM in assay [2] (GST-PLK2, 60 min reaction); 1 to 10 µM in assay [3] (setting [4]).
Regarding `CC[C@@H]1C(=O)N(C)c2cnc(-c3cncs3)nc2N1C1CCCC1` [Example 355, (R)-8-cyclopentyl-7-ethyl-5-methyl-2-(thiazol-5-yl)-7,8-dihydropteridin-6(5H)-one], the IC50 in assay [1] (GST-PLK1, 60 min reaction) is below 1 µM; in assay [2] (GST-PLK2, 60 min reaction), below 1 µM; in assay [3] (setting [4]), 1 to 10 µM.
For `CC[C@@H]1C(=O)N(C)c2cnc(-n3cnc(C(=O)N(C)C)c3)nc2N1C1CCCC1` [Example 384, (R)-1-(8-cyclopentyl-7-ethyl-5-methyl-6-oxo-5,6,7,8-tetrahydropteridin-2-yl)-N,N-dimethyl-1H-imidazole-4-carboxamide], the IC50 in assay [1] (GST-PLK1) is 1 to 10 µM; in assay [2] (GST-PLK2) it was 1 to 10 µM; in assay [3] (GST-PLK3, read-out: Plk3 IC50) it was 10 to 50 µM.
On to `CC[C@]12CCCCN1c1nc(-n3ccnc3-c3cc(F)c(F)c(F)c3)ncc1N(C)C2=O` [Example 267, (R)-6a-ethyl-5-methyl-2-(2-(3,4,5-trifluorophenyl)-1H-imidazol-1-yl)-7,8,9,10-tetrahydro-5H-pyrido[2,1-h]pteridin-6(6aH)-one], for which the IC50 in assay [1] (GST-PLK1, 60 min reaction) is above 50 µM; in assay [2] (GST-PLK2, 60 min reaction) it was above 50 µM; in assay [3] (setting [4]), above 50 µM.
With `CC[C@@H]1CC[C@@]2(CC)C(=O)N(C)c3cnc(-n4ccnc4C)nc3N12` [Example 325, (6aS,9R)-6a,9-diethyl-5-methyl-2-(2-methyl-1H-imidazol-1-yl)-6a,7,8,9-tetrahydropyrrolo[2,1-h]pteridin-6(5H)-one], the IC50 is 10 to 50 µM in assay [1] (GST-PLK1, 60 min reaction); 1 to 10 µM in assay [2] (GST-PLK2, 60 min reaction); 10 to 50 µM in assay [3] (setting [4]).
Take `CC[C@@H]1C(=O)N(C)c2cnc(-c3cn[nH]c3-c3nccs3)nc2N1C(C)C1CC1` (stereo partly drawn) [Example 357, (7R)-8-(1-cyclopropylethyl)-7-ethyl-5-methyl-2-(5-(thiazol-2-yl)-1H-pyrazol-4-yl)-7,8-dihydropteridin-6(5H)-one]: the IC50 was below 1 µM in assay [1] (GST-PLK1, 60 min reaction); below 1 µM in assay [2] (GST-PLK2, 60 min reaction); 1 to 10 µM in assay [3] (setting [4]).
